From patent publication US10674724B2, “Method of activating immune response in plants” (priority 2012, dated 2020)

Tests used:
NPR1 [1] = target: T1, NPR1 (Arabidopsis thaliana, UniProt P93002); test: classical non-equilibrium solid-phase [14C]SA binding; conditions: radiolabeled SA, washes to remove unbound ligand
T1 construct: made in house; host or cells: E. coli
Protocol: To test whether NPR1 can bind SA directly, a classic method to assess Kd values was used, which involved coupling NPR1 to a solid phase and incubating it with radiolabeled SA, followed by washes to remove unbound ligand and counting the amount of ligand bound to NPR1.

NPR1 [2] = target: T1, NPR1; assay type: binding; conditions: equilibrium dialysis
Protocol: Given the dissociation reaction:
The data was analyzed by non-linear regression using GraphPad PRISM 4 and fitted to a one-site-binding rectangular hyperbola.

NPR1 C521S/C529S = target: T2, NPR1 C521S/C529S (Arabidopsis thaliana, UniProt P93002, C521S/C529S); test: Sephacryl S300 gel filtration of NPR1 Cys-to-Ser mutant; assay type: biochemical; conditions: 1 mM SA
T2 construct: both full-length NPR1 and Δ513 harboring C-to-S mutations at Cys^521/529; made in house; host or cells: E. coli
Protocol: Strep-tagged purified proteins in a final volume of 2 ml were subjected to gel filtration analysis on the Sephacryl S100 HR or Sephacryl S300 HR packed in 50 cm long HR 16 columns (GE Health) and equilibrated with S300 chromatography buffer (50 mM HEPES, pH 7.4, 250 mM NaCl. Elutions, in 0.5 ml fractions, were performed in the same buffer at a flow rate of 0.8 ml/min. Where indicated, proteins were incubated with 1 mM SA, 1 mM catechol, 1 mM 4-hydroxy benzoic acid, or 1 mM methyl-salicylate at room temperature for 30 min prior to chromatography as described above with the exception that the chromatography buffer was supplemented with 1 mM SA, 1 mM catechol, 1 mM 4-hydroxy benzoic acid, or 1 mM methyl-salicylate, respectively. In the case of the EDTA treatment, NPR1 was stripped of its metal by a 50 mM EDTA treatment of 30 min, followed by an incubation of 30 min with 1 mM SA prior to gel filtration. In this case, the chromatography buffer was supplemented with 1 mM SA.

BTB/POZ-Δ513 interaction [3] = target: T3, BTB/POZ-Δ513 interaction (Arabidopsis thaliana, UniProt P93002); test: BTB/POZ-Δ513 pull-down assay; assay type: biochemical; parameters: made in house; host or cells: E. coli; conditions: 1 mM SA
T3 sequence (P93002 513-593): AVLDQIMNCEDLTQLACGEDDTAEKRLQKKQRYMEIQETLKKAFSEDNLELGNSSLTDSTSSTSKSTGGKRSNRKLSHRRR
Protocol: The BTB/POZ (amino acids 1-190 of NPR1) was expressed in E. coli as a C-terminal fusion to the Strep-Tag according to standard protocols. The Δ513 of NPR1 was expressed as an N-terminal fusion to the HA-Tag as described above. The VLRSgt (as described in Hall et al. (2007) Plant J 49, 579-591) was expressed in E. coli as an N-terminal fusion to the GST-Tag according to standard protocols. The pull-down assay was performed in the Strep-Tactin buffer. The antibodies used for detecting the tags in the BTB/POZ-Strep was from Qiagen (catalog #34850) and those used for the tags in HA-Δ513 or the GST-VLRSgt were from Santa Cruz Biotechnology (catalog #: sc-7392 and sc-138).
Given that the plant two-hybrid system is an in vivo method of analysis, an indirect effect of SA on the interaction of the BTB/POZ and the C-terminus of NPR1 cannot be ruled out. Thus, the interaction in vitro in a pull-down assay (FIG. 8) was tested. […] As negative controls, first an unrelated protein (VLRSgt) was shown not to interact with BTB/POZ (FIG. 5D) and secondly Δ513 was shown not to interact with the solid support in the absence of BTB/POZ (FIG. 5E).

BTB/POZ-Δ513 interaction [4] = target: T3, BTB/POZ-Δ513 interaction; test: in vivo plant two-hybrid assay; assay type: cell-based; parameters: expressed in transfected cells; host or cells: Arabidopsis thaliana (Columbia) leaves, biolistic bombardment; conditions: 1 mM salicylic acid in medium, reporter mRNA
Protocol: Arabidopsis thaliana (Columbia) leaves were harvested from four-week-old plants grown at 21° C. (day) and 18° C. (night) with a ten-hour photoperiod and transferred to Petri dishes containing MS salts and micronutrients supplemented with B5 vitamins, 1% sucrose and 0.8% agar at a pH of 5.8. […] Coating of the gold particles and general procedures and preparation of the biolistic experiments were as per the manufacturer's instructions (Bio-Rad). After bombardment, leaves were kept in the conditions described above for a period of 24 hours before assaying. Enzyme assays were performed using the Dual-Luciferase Reporter Assay® system (Promega) following the manufacturer's instructions. Luminescence was measured on a Berthold Lumat LB9507 Luminometer (Bad Wildbad, Germany) and the data obtained represented the value of the reporter gene divided by the value of the internal standard and expressed as Relative Luciferase Units. To increase signal-to-noise ratio in some experiments, qPCR was performed to measure the amount of Firefly and Renilla Luciferases mRNA. […]
Since BTB/POZ domains can be autoinhibitory, it was determined whether or not the NPR1 BTB/POZ can interact with the NPR1 transactivation domain. […] Here the reporter gene was monitored through its mRNA as opposed to its enzyme activity, which provided a greater signal-to-noise ratio (see Experimental Procedures). […]

T1 sequence (P93002 whole entry): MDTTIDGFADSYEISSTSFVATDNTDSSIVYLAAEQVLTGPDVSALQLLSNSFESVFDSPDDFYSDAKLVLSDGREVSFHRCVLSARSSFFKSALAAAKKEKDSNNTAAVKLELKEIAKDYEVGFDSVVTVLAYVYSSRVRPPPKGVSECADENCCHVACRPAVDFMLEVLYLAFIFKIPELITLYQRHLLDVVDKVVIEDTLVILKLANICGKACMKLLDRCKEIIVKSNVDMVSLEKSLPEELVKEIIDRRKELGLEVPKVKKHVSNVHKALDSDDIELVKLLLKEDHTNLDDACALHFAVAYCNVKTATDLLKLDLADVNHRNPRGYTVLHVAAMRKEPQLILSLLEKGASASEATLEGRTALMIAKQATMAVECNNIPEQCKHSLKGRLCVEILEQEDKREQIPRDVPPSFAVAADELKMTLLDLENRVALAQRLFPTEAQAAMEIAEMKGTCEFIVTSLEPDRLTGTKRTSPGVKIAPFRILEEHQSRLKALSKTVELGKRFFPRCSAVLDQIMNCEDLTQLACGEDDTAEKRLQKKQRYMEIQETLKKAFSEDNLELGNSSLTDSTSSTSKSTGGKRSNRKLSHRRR
T2 sequence (P93002 whole entry C521S/C529S): as the sequence (P93002 whole entry) above, with C521S, C529S counted along it

Structure (SMILES): O=C(O)c1ccccc1O [SA, Salicylic acid]
- binding of SA to NPR1 coupled to a solid phase (NPR1 [1]): not above that observed with a solid phase containing no protein
- amount of SA bound to NPR1 above a no-protein experiment (NPR1 [2]): ~4 orders of magnitude
- maximum binding (Bmax) (NPR1 [2]; saturation binding): 0.96±0.01 mol SA per mol NPR1
- SA-induced NPR1 conformation change, Cys521/529 mutant (NPR1 C521S/C529S): abolished the NPR1 conformation change
- BTB/POZ-Δ513 interaction in pull-down (BTB/POZ-Δ513 interaction [3]): disrupted
- BTB/POZ-Δ513 interaction in plant two-hybrid (BTB/POZ-Δ513 interaction [4]): disrupts the BTB/POZ-Δ513 association
